From patent US12310975B2, “Modulators of BCL6 proteolysis and associated methods of use” (Arvinas Operations, Inc., priority 2019, dated 2025)
Read-outs that look alike come from different tables or passages of the source.

Biological target: BCL6 (Homo sapiens (Human), UniProt P41182)
Test: Immunofluorescence high content imaging of BCL6 degradation in T47D cells
Type: cell-based
Details: for DC50: class symbols A-D, read-out: EC50 (nM)*
Method in brief: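 T47D cells were treated for 3 days at 37 °C with 11-point 3-fold dilutions of bifunctional degrader (final top 0.1 or 1 μM). BCL6 was detected by immunofluorescence after PFA fixation, with Hoechst and cell mask counterstains, and imaged at 10×, 4 fields/well.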

Compound | DC50 [nM] | Dmax (T47D cells) [%] | IC50 (T47D cells) [nM] | further results
CNC(=O)COc1cc2cc(Nc3nc(N4CCC(OCCOCCOCCOCCOCCOCCNc5cccc6c5C(=O)N(C5CCC(=O)NC5=O)C6=O)CC4)ncc3Cl)ccc2n(C)c1=O (stereo not shown) [compound 81, 2-((6-((5-chloro-2-(4-((17-((2-(2,6-dioxopiperidin-3-yl)-1,3-dioxoisoindolin-4-yl)amino)-3,6,9,12,15-pentaoxaheptadecyl)oxy)piperidin-1-yl)pyrimidin-4-yl)amino)-1-methyl-2-oxo-1,2-dihydroquinolin-3-yl)oxy)-N-methylacetamide] | > 100 |  |  | 
CNC(=O)COc1cc2cc(Nc3nc(N4CCN(C(C)(C)C5CCN(c6ccc(C(=O)NC7CCC(=O)NC7=O)c(OC)c6)CC5)CC4)ncc3Cl)ccc2n(C)c1=O (stereo not shown) [compound 315, 4-[4-(2-{4-[5-chloro-4-({1-methyl-3-[(methylcarbamoyl)methoxy]-2-oxo-1,2-dihydroquinolin-6-yl}amino)pyrimidin-2-yl]piperazin-1-yl}propan-2-yl)piperidin-1-yl]-N-(2,6-dioxopiperidin-3-yl)-2-methoxybenzamide] |  | 50 to 70 | 10 to 50 | 
CNC(=O)COc1cc2cc(Nc3nc(N4CCC(OCCOCCOc5ccc6c(c5)C(=O)N(C5CCC(=O)NC5=O)C6=O)CC4)ncc3Cl)ccc2n(C)c1=O (stereo not shown) [compound 63, 2-((6-((5-chloro-2-(4-(2-(2-((2-(2,6-dioxopiperidin-3-yl)-1,3-dioxoisoindolin-5-yl)oxy)ethoxy)ethoxy)piperidin-1-yl)pyrimidin-4-yl)amino)-1-methyl-2-oxo-1,2-dihydroquinolin-3-yl)oxy)-N-methylacetamide] | 10 to 50 |  |  | 
CNC(=O)COc1cc2cc(Nc3nc(N4CCC(CN5CC6(CCN(c7ccc8c(c7)C(=O)N(C7CCC(=O)NC7=O)C8=O)CC6)C5)CC4)ncc3Cl)ccc2n(C(C)C)c1=O (stereo not shown) [compound 374, 2-{[6-({5-chloro-2-[4-({7-[2-(2,6-dioxopiperidin-3-yl)-1,3-dioxo-2,3-dihydro-1H-isoindol-5-yl]-2,7-diazaspiro[3.5]nonan-2-yl}methyl)piperidin-1-yl]pyrimidin-4-yl}amino)-2-oxo-1-(propan-2-yl)-1,2-dihydroquinolin-3-yl]oxy}-N-methylacetamide] |  | ≥ 70 | < 10 | 
CNC(=O)COc1cc2cc(Nc3nc(N4CCC(Oc5cccc(OCCCCOCCOCCOc6ccc7c(c6)CN(C6CCC(=O)NC6=O)C7=O)c5)CC4)ncc3Cl)ccc2n(C)c1=O (stereo not shown) [compound 95, 2-((6-((5-chloro-2-(4-(3-(4-(2-(2-((2-(2,6-dioxopiperidin-3-yl)-1-oxoisoindolin-5-yl)oxy)ethoxy)ethoxy)butoxy)phenoxy)piperidin-1-yl)pyrimidin-4-yl)amino)-1-methyl-2-oxo-1,2-dihydroquinolin-3-yl)oxy)-N-methylacetamide] | > 100 |  |  | 
CNC(=O)COc1cc2cc(Nc3nc(N4CCC(N(C)[C@H]5CC[C@H](CN6CCN(c7ccc8c(c7)CN(C7CCC(=O)NC7=O)C8=O)CC6)CC5)CC4)ncc3Cl)ccc2n(C)c1=O (stereo partly shown) [compound 101, 2-((6-((5-chloro-2-(4-(((1r,4r)-4-((4-(2-(2,6-dioxopiperidin-3-yl)-1-oxoisoindolin-5-yl)piperazin-1-yl)methyl)cyclohexyl) (methyl)amino)piperidin-1-yl)pyrimidin-4-yl)amino)-1-methyl-2-oxo-1,2-dihydroquinolin-3-yl)oxy)-N-methylacetamide] | < 10 |  |  | 
CC(=O)COc1cc2cc(Nc3nc(N4CC(OC5CCN(c6ccc7c(c6)C(=O)N(C6CCC(=O)NC6=O)C7=O)CC5)C4)ncc3Cl)ccc2n(C)c1=O (stereo not shown) [compound 183, 5-(4-((1-(5-chloro-4-((1-methyl-2-oxo-3-(2-oxopropoxy)-1,2-dihydroquinolin-6-yl)amino)pyrimidin-2-yl)azetidin-3-yl)oxy)piperidin-1-yl)-2-(2,6-dioxopiperidin-3-yl)isoindoline-1,3-dione] |  |  |  | IC50: 10 to 50 nM; Dmax (T47D): < 50%
CNC(=O)COc1cc2cc(Nc3nc(N4CCN(CC5CCN(c6cccc(C(=O)NC7CCC(=O)NC7=O)[n+]6[O-])CC5)CC4)ncc3Cl)ccc2n(C(C)C)c1=O (stereo not shown) [compound 397, 2-[4-({4-[5-chloro-4-({3-[(methylcarbamoyl)methoxy]-2-oxo-1-(propan-2-yl)-1,2-dihydroquinolin-6-yl}amino)pyrimidin-2-yl]piperazin-1-yl}methyl)piperidin-1-yl]-6-[(2,6-dioxopiperidin-3-yl)carbamoyl]pyridin-1-ium-1-olate] |  | < 50 | 10 to 50 | 
CNC(=O)COc1cc2cc(Nc3nc(N4CCO[C@H](CCOc5ccc6c(c5)C(=O)N(C5CCC(=O)NC5=O)C6=O)C4)ncc3Cl)ccc2n(C(C)C)c1=O (stereo partly drawn) [compound 379, 2-{[6-({5-chloro-2-[(2R)-2-(2-{[2-(2,6-dioxopiperidin-3-yl)-1,3-dioxo-2,3-dihydro-1H-isoindol-5-yl]oxy}ethyl)morpholin-4-yl]pyrimidin-4-yl}amino)-2-oxo-1-(propan-2-yl)-1,2-dihydroquinolin-3-yl]oxy}-N-methylacetamide] |  |  | ≥ 100 | 
CNC(=O)COc1cc2cc(Nc3nc(N4CCC(C5(N6CCC(c7ccc8c(c7)C(=O)N(C7CCC(=O)NC7=O)C8=O)CC6)CC5)CC4)ncc3Cl)ccc2n(C)c1=O (stereo not shown) [compound 482, 2-{[6-({5-chloro-2-[4-(1-{4-[2-(2,6-dioxopiperidin-3-yl)-1,3-dioxo-2,3-dihydro-1H-isoindol-5-yl]piperidin-1-yl}cyclopropyl)piperidin-1-yl]pyrimidin-4-yl}amino)-1-methyl-2-oxo-1,2-dihydroquinolin-3-yl]oxy}-N-methylacetamide] |  |  |  | Dmax (T47D): 50 to 70%
CNC(=O)COc1cc2cc(Nc3nc(N4CCC(OCCOCC(=O)N[C@H](C(=O)N5C[C@H](O)C[C@H]5C(=O)NCc5ccc(-c6scnc6C)cc5)C(C)(C)C)CC4)ncc3Cl)ccc2n(C)c1=O [compound 86, (2S,4R)-1-((S)-2-(2-(2-((1-(5-chloro-4-((1-methyl-3-(2-(methylamino)-2-oxoethoxy)-2-oxo-1,2-dihydroquinolin-6-yl)amino)pyrimidin-2-yl)piperidin-4-yl)oxy)ethoxy)acetamido)-3,3-dimethylbutanoyl)-4-hydroxy-N-(4-(4-methylthiazol-5-yl)benzyl)pyrrolidine-2-carboxamide] | 50 to 100 |  |  | 
CNC(=O)COc1cc2cc(Nc3nc(N4CCC(F)(CN5CCN(c6ccc7c(c6)C(=O)N(C6CCC(=O)NC6=O)C7=O)CC5)CC4)ncc3Cl)ccc2n(C)c1=O (stereo not shown) [compound 340, 2-{[6-({5-chloro-2-[4-({4-[2-(2,6-dioxopiperidin-3-yl)-1,3-dioxo-2,3-dihydro-1H-isoindol-5-yl]piperazin-1-yl}methyl)-4-fluoropiperidin-1-yl]pyrimidin-4-yl}amino)-1-methyl-2-oxo-1,2-dihydroquinolin-3-yl]oxy}-N-methylacetamide] |  | 50 to 70 | < 10 | 
CNC(=O)COc1cc2cc(Nc3nc(N4CCC(CN5CC6(CCN(c7cccc(C(=O)NC8CCC(=O)NC8=O)c7OC)CC6)C5)CC4)ncc3Cl)ccc2n(C(C)C)c1=O (stereo not shown) [compound 441, 3-[2-({1-[5-chloro-4-({3-[(methylcarbamoyl)methoxy]-2-oxo-1-(propan-2-yl)-1,2-dihydroquinolin-6-yl}amino)pyrimidin-2-yl]piperidin-4-yl}methyl)-2,7-diazaspiro[3.5]nonan-7-yl]-N-(2,6-dioxopiperidin-3-yl)-2-methoxybenzamide] |  |  | ≥ 100 | 
CNC(=O)COc1cc2cc(Nc3nc(N4CCC[C@H](COc5cccc6c5C(=O)N(C5CCC(=O)NC5=O)C6=O)C4)ncc3Cl)ccc2n(CCC2CC2)c1=O (stereo partly drawn) [compound 334, 2-{[6-({5-chloro-2-[(3S)-3-({[2-(2,6-dioxopiperidin-3-yl)-1,3-dioxo-2,3-dihydro-1H-isoindol-4-yl]oxy}methyl)piperidin-1-yl]pyrimidin-4-yl}amino)-1-(2-cyclopropylethyl)-2-oxo-1,2-dihydroquinolin-3-yl]oxy}-N-methylacetamide] |  | ≥ 70 | < 10 | 
CCN(C1CCN(c2ccc3c(c2)C(=O)N(C2CCC(=O)NC2=O)C3=O)CC1)C1CCN(c2ncc(Cl)c(Nc3ccc4c(c3)cc(OCC(=O)NC)c(=O)n4C)n2)CC1 (stereo not shown) [compound 326, 2-{[6-({5-chloro-2-[4-({1-[2-(2,6-dioxopiperidin-3-yl)-1,3-dioxo-2,3-dihydro-1H-isoindol-5-yl]piperidin-4-yl}(ethyl)amino)piperidin-1-yl]pyrimidin-4-yl}amino)-1-methyl-2-oxo-1,2-dihydroquinolin-3-yl]oxy}-N-methylacetamide] |  | 50 to 70 | 10 to 50 | 
CNC(=O)COc1cc2cc(Nc3nc(N4CCC(OC5CC6(CCN(c7ccc(C(=O)NC8CCC(=O)NC8=O)c(OC)c7)CC6)C5)CC4)ncc3Cl)ccc2n(C(C)C)c1=O (stereo not shown) [compound 432, 4-[2-({1-[5-chloro-4-({3-[(methylcarbamoyl)methoxy]-2-oxo-1-(propan-2-yl)-1,2-dihydroquinolin-6-yl}amino)pyrimidin-2-yl]piperidin-4-yl}oxy)-7-azaspiro[3.5]nonan-7-yl]-N-(2,6-dioxopiperidin-3-yl)-2-methoxybenzamide] |  | ≥ 70 | 10 to 50 | 
CNC(=O)COc1cc2cc(Nc3nc(N4CCC(Cc5cn(CCOCCOCC(=O)N[C@H](C(=O)N6C[C@H](O)C[C@H]6C(=O)N[C@@H](C)c6ccc(-c7scnc7C)cc6)C(C)(C)C)nn5)CC4)ncc3Cl)ccc2n(C)c1=O [compound 133, (2S,4R)-1-((S)-2-(2-(2-(2-(4-((1-(5-chloro-4-((1-methyl-3-(2-(methylamino)-2-oxoethoxy)-2-oxo-1,2-dihydroquinolin-6-yl)amino)pyrimidin-2-yl)piperidin-4-yl)methyl)-1H-1,2,3-triazol-1-yl)ethoxy)ethoxy)acetamido)-3,3-dimethylbutanoyl)-4-hydroxy-N-((S)-1-(4-(4-methylthiazol-5-yl)phenyl)ethyl)pyrrolidine-2-carboxamide] | > 100 |  |  | 
